Experimental data: patent publication US9820972B2, “Antiviral compounds highly effective as HCV-NS5A inhibitor” (priority 2013, dated 2017)

Tested on: GT-1a of NS5A Replicon
Experiment: HCV double reporter gene (Renilla luciferase) replicon assay, GT-1a
Type: cell-based, Hepatitis C virus (HCV)
Settings: GT-1a replicon; class symbols; read-out: EC50 For GT-1a of NS5A Replicon
Protocol: Antiviral Assay for Inhibition Activity (EC50):
The study is completed by a new constructed double reporter genes replicon assay system, the capacity of viral replicon in infected cell is determined by detecting the reporter gene Renilla luciferase. The relationship of reporter genes, HCV RNA replicon and viral proteins is well linear. 8 gradient concentrations for 2-fold dilution, 3 wells, 3 times repetition and 1 or 2 control drugs are set to finally determine EC50 of compound.
THF was distilled from sodium metal and benzophenone. DCM, pentane and hexane were distilled form calcium hydride. Special raw material and intermediate in the invention were ordered by contract synthesis from Zannan SciTech Co., Let in China, others reagents were purchased from Shanghai reagent company, Aldrich, Acros etc. As intermediates or products during the synthesis is not required for the reaction and other tests the next step, the synthesis is repeated until a sufficient number of times. The invention of the prepared compounds of […] (HCV NS5A) inhibitory activity test was performed by CRO service units such as WuXi AppTec etc.

`COC(=O)NC(C(=O)N1CC=C[C@H]1c1ncc(-c2ccc(-c3ccc(-c4cnc([C@@H]5CCCN5C(=O)[C@@H](NC(=O)OC)C(C)C)[nH]4)cc3)cc2)[nH]1)C1CCCCC1` (stereo partly shown) [Compound 6di] and `CNC(=O)NC(C(=O)N1CC=C[C@H]1c1nc(-c2ccc(-c3ccc(-c4c[nH]c(C5CCCN5C(=O)[C@@H](NC(=O)NC)C(C)C)n4)cc3)cc2)c[nH]1)C(C)C` (stereo partly shown) [Compound 6ch] fall in the same range of EC50: 0.001 to 0.999 nM for the first, 0.001 to 0.999 nM for the second.

For `COC(=O)NC(C(=O)N1CC=C[C@H]1c1ncc(-c2ccc(-c3ccc(-c4cnc([C@@H]5CCCN5C(=O)[C@@H](NC(=O)OC)C(C)C)[nH]4)cc3)cc2)[nH]1)C1CCCCC1` (stereo partly shown) [Compound 6dj], the EC50 was 1 to 49.9 nM.

Same assay, conditions: Hepatitis C virus, GT1A, GT-1a replicon; class symbols; read-out: EC50 For GT-1a of NS5A Replicon

Compared with `COC(=O)N[C@H](C(=O)N1CCC[C@H]1c1nc(-c2ccc(-c3ccc(-c4cnc([C@@H]5C[C@@H](OC(=O)N6Cc7cc8c(cc7C6)OCO8)CN5C(=O)[C@@H](NC(=O)OC(C)(C)C)C(C)C)[nH]4)cc3)cc2)c[nH]1)C(C)C` [Compound 6m], `COC(=O)N[C@H](C(=O)N1C[C@H](OC(=O)N2Cc3cc4c(cc3C2)OCO4)CC1c1ncc(-c2ccc(-c3ccc(-c4c[nH]c([C@@H]5CCCN5C(=O)[C@@H](NC(=O)OC)C(C)C)n4)cc3)cc2)[nH]1)C(C)C` (stereo partly shown) [Compound 6i] is lower in EC50: 1 to 49.9 nM for the first, 0.001 to 0.999 nM for the second. The second is the more potent here.

`COC(=O)N[C@H](C(=O)N1CCCC1c1nc(-c2ccc(-c3ccc(-c4c[nH]c([C@@H]5C=CCN5C(=O)C(NC(=O)N(C)C)C(C)C)n4)cc3)cc2)c[nH]1)C(C)C` (stereo partly shown) [Compound 6ci] and `CNC(=O)NC(C(=O)N1CC=C[C@H]1c1nc(-c2ccc(-c3ccc(-c4c[nH]c(C5CCCN5C(=O)[C@@H](NC(=O)OC)C(C)C)n4)cc3)cc2)c[nH]1)C(C)C` (stereo partly shown) [Compound 6cj] fall in the same range of EC50: 0.001 to 0.999 nM for the first, 0.001 to 0.999 nM for the second.

`COC(=O)N[C@H](C(=O)N1CN(C(=O)N2Cc3cccc(F)c3C2)CC1c1nc(-c2ccc(-c3ccc(-c4c[nH]c([C@@H]5CCCN5C(=O)[C@@H](NC(=O)OC)C(C)C)n4)cc3)cc2)c[nH]1)C(C)C` (stereo partly shown) [Compound 6ar] and `COC(=O)N[C@H](C(=O)N1CN(C(=O)N2Cc3cccc(OC)c3C2)CC1c1nc(-c2ccc(-c3ccc(-c4c[nH]c([C@@H]5CCCN5C(=O)[C@@H](NC(=O)OC)C(C)C)n4)cc3)cc2)c[nH]1)C(C)C` (stereo partly shown) [Compound 6aw] fall in the same range of EC50: 0.001 to 0.999 nM for the first, 0.001 to 0.999 nM for the second.

`COC(=O)N[C@H](C(=O)N1CC=C[C@H]1c1ncc(-c2ccc(-c3ccc(-c4cnc([C@@H]5CN(S(=O)(=O)C6CC6)CN5C(=O)[C@@H](NC(=O)OC)C(C)C)[nH]4)cc3)cc2)[nH]1)C(C)C` [Compound 6da] and `COC(=O)N[C@H](C(=O)N1CC=C[C@H]1c1ncc(-c2ccc(-c3ccc(-c4cnc([C@@H]5CN(C(=O)OC)CN5C(=O)[C@@H](NC(=O)OC)C(C)C)[nH]4)cc3)cc2)[nH]1)C(C)C` [Compound 6db] fall in the same range of EC50: 0.001 to 0.999 nM for the first, 0.001 to 0.999 nM for the second.

`COC(=O)N[C@H](C(=O)N1CC=CC1c1nc(-c2ccc(-c3ccc(-c4c[nH]c([C@@H]5COCCN5C(=O)[C@@H](NC(=O)OC)C(C)C)n4)cc3)cc2)c[nH]1)C(C)C` (stereo partly shown) [Compound 6bm] and `COC(=O)N[C@H](C(=O)N1CCCC1c1nc(-c2ccc(-c3ccc(-c4c[nH]c([C@@H]5COCCN5C(=O)[C@@H](NC(=O)OC)C(C)C)n4)cc3)cc2)c[nH]1)C(C)C` (stereo partly shown) [Compound 6ag] fall in the same range of EC50: 0.001 to 0.999 nM for the first, 0.001 to 0.999 nM for the second.

`COC(=O)N[C@H](C(=O)N1CC=CC1c1nc(-c2ccc(-c3ccc(-c4c[nH]c([C@@H]5CCCN5C(=O)C5(NC(=O)OC)CCCC5)n4)cc3)cc2)c[nH]1)C(C)C` (stereo partly shown) [Compound 6bi] and `COC(=O)N[C@H](C(=O)N1CC=CC1c1nc(-c2ccc(-c3ccc(-c4c[nH]c([C@@H]5CCCN5C(=O)C5(NC(=O)OC)CCCCC5)n4)cc3)cc2)c[nH]1)C(C)C` (stereo partly shown) [Compound 6bj] fall in the same range of EC50: 0.001 to 0.999 nM for the first, 0.001 to 0.999 nM for the second.

`COC(=O)N[C@H](C(=O)N1CCCC1c1nc(-c2ccc(-c3ccc(-c4c[nH]c([C@@H]5CCCCN5C(=O)[C@@H](NC(=O)OC)C(C)C)n4)cc3)cc2)c[nH]1)C(C)C` (stereo partly shown) [Compound 6ab] and `COC(=O)N[C@H](C(=O)N1CCCCC1c1nc(-c2ccc(-c3ccc(-c4c[nH]c([C@@H]5COCCN5C(=O)[C@@H](NC(=O)OC)C(C)C)n4)cc3)cc2)c[nH]1)C(C)C` (stereo partly shown) [Compound 6aj] fall in the same range of EC50: 0.001 to 0.999 nM for the first, 0.001 to 0.999 nM for the second.

`COC(=O)N[C@H](C(=O)N1CCCC1c1nc(-c2ccc(-c3ccc(-c4c[nH]c([C@@H]5CCCN5C(=O)C5(NC(=O)OC)CCCC5)n4)cc3)cc2)c[nH]1)C(C)C` (stereo partly shown) [Compound 6z] and `COC(=O)N[C@H](C(=O)N1CC=CC1c1nc(-c2ccc(-c3ccc(-c4c[nH]c([C@@H]5CCCN5C(=O)C5(NC(=O)OC)CC5)n4)cc3)cc2)c[nH]1)C(C)C` (stereo partly shown) [Compound 6bh] fall in the same range of EC50: 0.001 to 0.999 nM for the first, 0.001 to 0.999 nM for the second.

`CC(C)[C@H](NC(=O)OC1CCCC1)C(=O)N1CC=CC1c1ncc(-c2ccc(-c3ccc(-c4c[nH]c([C@@H]5C=CCN5C(=O)[C@@H](NC(=O)OC5CCCC5)C(C)C)n4)cc3)cc2)[nH]1` (stereo partly shown) [Compound 6bf] and `CC(C)[C@H](NC(=O)OC1CCCC1)C(=O)N1CCC[C@H]1c1nc(-c2ccc(-c3ccc(-c4cnc([C@@H]5C[C@@H](OC(=O)N6Cc7cc8c(cc7C6)OCO8)CN5C(=O)[C@@H](NC(=O)OC5CCCC5)C(C)C)[nH]4)cc3)cc2)c[nH]1` [Compound 6r] cannot be ordered by EC50: > 50 nM for the first, > 50 nM for the second.

`COC(=O)N[C@H](C(=O)N1CC=C[C@H]1c1nc(-c2ccc(-c3ccc(-c4cnc([C@@H]5CC6(CN5C(=O)[C@H](NC(=O)OC)c5ccccc5)OCCO6)[nH]4)cc3)cc2)c[nH]1)C(C)C` [Compound 6du] and `COC(=O)N[C@H](C(=O)N1CC=CC1c1ncc(-c2ccc(-c3csc4c(-c5c[nH]c([C@@H]6CCCN6C(=O)[C@H](NC(=O)OC)c6ccccc6)n5)csc34)cc2)[nH]1)C(C)C` (stereo partly shown) [Compound 6ft] fall in the same range of EC50: 0.001 to 0.999 nM for the first, 0.001 to 0.999 nM for the second.

Compared with `COC(=O)N[C@H](C(=O)N1CCC[C@H]1c1ncc(-c2cc3sc(-c4ccc(-c5cnc([C@@H]6C=CCN6C(=O)[C@H](NC(=O)OC)c6ccccc6)[nH]5)cc4)cc3s2)[nH]1)C(C)C` [Compound 6fj], `COC(=O)N[C@H](C(=O)N1CCC[C@H]1c1ncc(-c2ccc(-c3ccc(-c4cnc([C@@H]5CN(C(=O)N6Cc7ccc(OC)c(OC)c7C6)CN5C(=O)[C@@H](NC(=O)OC)C(C)C)[nH]4)cc3)cc2)[nH]1)C(C)C` [Compound 6cq] is higher in EC50: 0.001 to 0.999 nM for the first, 1 to 49.9 nM for the second. The first is the more potent here.

`COC(=O)N[C@H](C(=O)N1CN(C(=O)N2Cc3ccc4c(c3C2)OCO4)CC1c1nc(-c2ccc(-c3ccc(-c4c[nH]c([C@@H]5CCCN5C(=O)[C@@H](NC(=O)OC)C(C)C)n4)cc3)cc2)c[nH]1)C(C)C` (stereo partly shown) [Compound 6ae] and `COC(=O)N[C@H](C(=O)N1CN(C(=O)N2Cc3ccc(Cl)cc3C2)CC1c1nc(-c2ccc(-c3ccc(-c4c[nH]c([C@@H]5CCCN5C(=O)[C@@H](NC(=O)OC)C(C)C)n4)cc3)cc2)c[nH]1)C(C)C` (stereo partly shown) [Compound 6au] fall in the same range of EC50: 0.001 to 0.999 nM for the first, 0.001 to 0.999 nM for the second.

Compared with `COC(=O)N[C@H](C(=O)N1C[C@H](OC(=O)N2Cc3ccc4c(c3C2)OCO4)CC1c1ncc(-c2ccc(-c3ccc(-c4c[nH]c([C@@H]5CCCN5C(=O)[C@@H](NC(=O)OC)C(C)C)n4)cc3)cc2)[nH]1)C(C)C` (stereo partly shown) [Compound 6a], `COC(=O)N[C@H](C(=O)N1CCC[C@H]1c1nc(-c2ccc(-c3ccc(-c4cnc([C@@H]5C[C@@H](OC(=O)N6Cc7ccc8c(c7C6)OCO8)CN5C(=O)[C@@H](NC(=O)OC(C)(C)C)C(C)C)[nH]4)cc3)cc2)c[nH]1)C(C)C` [Compound 6d] is higher in EC50: 0.001 to 0.999 nM for the first, 1 to 49.9 nM for the second.

Compared with `COC(=O)N[C@H](C(=O)N1CC(OC(=O)N2Cc3ccc4c(c3C2)OCO4)CC1c1nc(-c2ccc(-c3ccc(-c4c[nH]c([C@@H]5CC6(CC6)CN5C(=O)[C@@H](NC(=O)OC)C(C)C)n4)cc3)cc2)c[nH]1)C(C)C` (stereo partly shown) [Compound 6an], `CC(C)[C@H](NC(=O)OC(C)(C)C)C(=O)N1CCC[C@H]1c1nc(-c2ccc(-c3ccc(-c4cnc([C@@H]5C[C@@H](OC(=O)N6Cc7ccc8c(c7C6)OCO8)CN5C(=O)[C@@H](NC(=O)OC(C)(C)C)C(C)C)[nH]4)cc3)cc2)c[nH]1` [Compound 6b] is higher in EC50: 0.001 to 0.999 nM for the first, > 50 nM for the second. The first is the more potent here.

`COC(=O)N[C@H](C(=O)N1CC(OC(=O)N2Cc3cc4c(cc3C2)OCO4)CC1c1nc(-c2ccc3c(c2)oc2cc(-c4c[nH]c([C@@H]5CCCN5C(=O)[C@@H](NC(=O)OC)C(C)C)n4)ccc23)c[nH]1)C(C)C` (stereo partly shown) [Compound 6bn] showed an EC50 of 0.001 to 0.999 nM.

Same assay, conditions: Hepatitis C virus, GT1A, read-out: EC50 For GT-1a of NS5A Replicon

For `COC(=O)N[C@H](C(=O)N1C[C@H](OC(=O)N2Cc3cc4c(cc3C2)OCO4)C[C@H]1c1nc(-c2ccc(-c3ccc(-c4cnc([C@@H]5C[C@@H](OC(=O)N6Cc7cc8c(cc7C6)OCO8)CN5C(=O)[C@@H](NC(=O)OC)C(C)C)[nH]4)cc3)cc2)c[nH]1)C(C)C` [Compound 6n], the EC50 was > 50 nM.

Tested on: not listed separately
Experiment: Acute Toxicity Study (MTD)
Type: in vivo, rats and mice
Settings: rats or mice, fed once, oral dose 10000 mg/kg, observed for a week
Text: Acute Toxicity Study (MTD):
Materials and Methods for MTD Study are as follows:
Animals were fed freely for adaptation more than 1 week. Healthy rats, body weight between 170-190 g, were divided randomly into 3 groups, 5 male and 5 female in each group. Healthy mice, body weight between 18-22 g, were divided randomly into 22 groups, 5 male and 5 female in each group.
In rats, the compound weighing 21.00 g, serial number 1-3 respectively, adding 0.7% sodium carboxymethyl cellulose solution 30.00 g, high-speed homogenizer machine 15000 RPM, 10 min mixing, the rats were fed once, oral dose 10000 mg/kg. In mice, the compound weighing 2.00 g, serial number 4-25 respectively, adding 0.7% sodium carboxymethyl cellulose solution 8.00 g, high-speed homogenizer machine 10000 RPM, 10 min mixing, the mice were fed once, oral dose 10000 mg/kg.
Animals were observed every hour after administration in the first day, and behavior observation daily continuous for a week. Dead animals were necropsied, gross pathology of the organs were observed and recorded.
Toxicity was evaluated by animal mortality, signs of clinical behavior and others.

With `COC(=O)N[C@H](C(=O)N1CCCC1c1nc(-c2cc3sc(-c4ccc(-c5c[nH]c(C6C=CCN6C(=O)[C@H](NC(=O)OC)c6ccccc6)n5)cc4)cc3s2)c[nH]1)C(C)C` (stereo partly shown) [Compound 6fc] the “MTD results: test-article related death and adverse events” value was “no any test-article related death and no any adverse events observed”.
